Measurements: patent CN104650070A, “二氢嘧啶类化合物及其在药物中的应用” (Guangdong HEC Pharmaceutical Co Ltd, priority 2013, dated 2015)
pEC50, pIC50: −log10 of the molar value.

Experiments:
[1] = test system: HBV in HepG2.2.15 cells (HBV HepG2.2.15细胞株); experiment: In vitro anti-HBV activity in HBV HepG2.2.15 cell line (qPCR of HBV DNA in culture supernatant); format: cell-based; settings: Hepatitis B virus, 192 h, HBV DNA in culture supernatant by qPCR, collected on day 8, top concentration 16.4 μM, 3-fold dilution, 9 points, duplicate wells
HBV = settings: cited from Science, 299 (2003), 893-896; cited from earlier work

Compound	pEC50 [1]	pIC50 (HBV)
CCOC(=O)C1=C(CN2CCOC[C@H]2C(=O)Nc2ccccc2)NC(c2nccs2)=N[C@H]1c1ccc(F)cc1Br [实施例10, (R)-4-(2-溴-4-氟苯基)-6-(((S)-3-(苯基氨甲酰基)吗啉代)甲基)-2-(噻唑-2-基)-1,4-二氢嘧啶-5-甲酸乙酯]	6.10	–
COC(=O)C1=C(CN2CCOC(CCC(=O)NS(=O)(=O)c3ccccc3)C2)NC(c2nccs2)=NC1c1ccc(F)cc1Br (centres unmarked) [实施例17, 4-(2-溴-4-氟苯基)-6-((-2-(3-氧代-3-(苯磺酰胺)丙基)吗啉代)甲基)-2-(噻唑-2-基)-1,4-二氢嘧啶-5-甲酸甲酯]	6.19	–
CCOC(=O)C1=C(CN2CCOC[C@H]2C(=O)Nc2ccccc2)NC(c2nccs2)=N[C@H]1c1ccc(F)cc1Cl [实施例11, (R)-4-(2-氯-4-氟苯基)-6-(((S)-3-(苯基氨甲酰基)吗啉代)甲基)-2-(噻唑-2-基)-1,4-二氢嘧啶-5-甲酸乙酯]	6.04	–
COC(=O)C1=C(CN2CCOC(CCC(=O)NS(=O)(=O)c3ccccc3)C2)NC(c2nccs2)=NC1c1ccc(F)cc1Cl (centres unmarked) [实施例18, 4-(2-氯-4-氟苯基)-6-((2-(3-氧代-3-(苯磺酰胺)丙基)吗啉代)甲基)-2-(噻唑-2-基)-1,4-二氢嘧啶-5-甲酸甲酯]	6.13	–
CCOC(=O)C1=C(CN2CCOC(CCC(=O)NCc3ccccc3)C2)NC(c2nccs2)=NC1c1ccc(F)cc1Br (centres unmarked) [实施例3, 6-((2-(3-(苄胺)-3-氧代丙基)吗啉)甲基)-4-(2-溴-4-氟苯基)-2-(噻唑-2-基)-1,4-二氢嘧啶-5-甲酸乙酯]	6.89	–
CCOC(=O)C1=C(CN2CCOC[C@H]2C(=O)Nc2ccccc2)NC(c2nccs2)=N[C@H]1c1ccc(Cl)cc1Cl [实施例12, (R)-4-(2,4-二氯苯基)-6-(((S)-3-(苯基氨甲酰基)吗啉代)甲基)-2-(噻唑-2-基)-1,4-二氢嘧啶-5-甲酸乙酯]	6.14	–
CCOC(=O)C1=C(CN2CCOC[C@H]2C(=O)Nc2nccs2)NC(c2nccs2)=N[C@H]1c1ccc(F)cc1Br [实施例13, (R)-4-(2-溴-4-氟苯基)-2-(噻唑-2-基)-6-(((S)-3-(噻唑-2-基氨甲酰)吗啉代)甲基)-1,4-二氢嘧啶-5-甲酸乙酯]	5.85	–
CCOC(=O)C1=C(CN2CCOC[C@H]2C(=O)NC2CC2)NC(c2nccs2)=N[C@H]1c1ccc(Cl)cc1Cl [实施例6, (R)-6-(((S)-3-(环丙氨甲酰基)吗啉代)甲基)-4-(2,4-二氯苯基)-2-(噻唑-2-基)-1,4-二氢嘧啶-5-甲酸乙酯]	6.19	–
CCOC(=O)C1=C(CN2CCOC[C@H]2C(=O)NS(C)(=O)=O)NC(c2nccs2)=NC1c1ccc(F)cc1Br (stereo partly drawn) [实施例1, 4-(2-溴-4-氟苯基)-6-(((S)-3-((甲磺酰基)氨甲酰基)吗啉代)甲基)-2-(噻唑-2-基)-1,4-二氢嘧啶-5-甲酸乙酯]	6.00	–
Nc1ccn([C@@H]2CS[C@H](CO)O2)c(=O)n1 [拉米夫定]	–	6.52
CCOC(=O)C1=C(CN2CCOC(CCC(=O)Nc3ccccc3)C2)NC(c2nccs2)=NC1c1ccc(Cl)cc1Cl (centres unmarked) [实施例16, 4-(2,4-二氯苯基)-6-((-2-(3-氧代-3-(苯胺)丙基)吗啉代)甲基)-2-(噻唑-2-基)-1,4-二氢嘧啶-5-甲酸乙酯]	6.31	–
CCOC(=O)C1=C(CN2CCOC[C@H]2C(=O)NS(=O)(=O)C2CC2)NC(c2nccs2)=NC1c1ccc(F)cc1Br (stereo partly drawn) [实施例2, 4-(2-溴-4-氟苯基)-6-(((S)-3-((环丙磺酰基)氨甲酰基)吗啉)甲基)-2-(噻唑-2-基)-1,4-二氢嘧啶-5-甲酸乙酯]	5.64	–
COC(=O)C1=C(CN2CCOC(CCC(=O)NS(=O)(=O)c3ccccc3)C2)NC(c2nccs2)=NC1c1ccc(Cl)cc1Cl (centres unmarked) [实施例19, 4-(2,4-二氯苯基)-6-((2-(3-氧代-3-(苯磺酰胺)丙基)吗啉代)甲基)-2-(噻唑-2-基)-1,4-二氢嘧啶-5-甲酸甲酯]	6.25	–
CCOC(=O)C1=C(CN2CCOC[C@H]2C(=O)NCc2ccccc2)NC(c2nccs2)=N[C@H]1c1ccc(Cl)cc1Cl [实施例9, (R)-6-(((S)-3-(苄基氨甲酰)吗啉代)甲基)-4-(2,4-二氯苯基)-2-(噻唑-2-基)-1,4-二氢嘧啶-5-甲酸乙酯]	6.27	–
CCOC(=O)C1=C(CN2CCOC[C@H]2C(=O)NC2CC2)NC(c2nccs2)=N[C@H]1c1ccc(F)cc1Cl [实施例5, (R)-4-(2-氯-4-氟苯基)-6-(((S)-3-(环丙氨甲酰基)吗啉代)甲基)-2-(噻唑-2-基)-1,4-二氢嘧啶-5-甲酸乙酯]	6.10	–
CCOC(=O)C1=C(CN2CCOC[C@H]2C(=O)NCc2ccccc2)NC(c2nccs2)=N[C@H]1c1ccc(F)cc1Cl [实施例8, (R)-6-(((S)-3-(苄基氨甲酰基)吗啉代)甲基)-4-(2-氯-4-氟苯基)-2-(噻唑-2-基)-1,4-二氢嘧啶-5-甲酸乙酯]	6.05	–
CCOC(=O)C1=C(CN2CCOC(CCC(=O)Nc3ccccc3)C2)NC(c2nccs2)=NC1c1ccc(F)cc1Br (centres unmarked) [实施例14, 4-(2-溴-4-氟苯基)-6-((-2-(3-氧代-3-(苯胺)丙基)吗啉代)甲基)-2-(噻唑-2-基)-1,4-二氢嘧啶-5-甲酸乙酯]	6.27	–
CCOC(=O)C1=C(CN2CCOC[C@H]2C(=O)NC2CC2)NC(c2nccs2)=N[C@H]1c1ccc(F)cc1Br [实施例4, (R)-4-(2-溴-4-氟苯基)-6-(((S)-3-(环丙氨甲酰基)吗啉代)甲基)-2-(噻唑-2-基)-1,4-二氢嘧啶-5-甲酸乙酯]	6.15	–
CCOC(=O)C1=C(CN2CCOC[C@H]2C(=O)NCc2ccccc2)NC(c2nccs2)=N[C@H]1c1ccc(F)cc1Br [实施例7, (R)-6-(((S)-3-(苄基氨甲酰基)吗啉代)甲基)-4-(2-溴-4-氟苯基)-2-(噻唑-2-基)-1,4-二氢嘧啶-5-甲酸乙酯]	6.17	–
CCOC(=O)C1=C(CN2CCOC(CCC(=O)Nc3ccccc3)C2)NC(c2nccs2)=NC1c1ccc(F)cc1Cl (centres unmarked) [实施例15, 4-(2-氯-4-氟苯基)-6-((-2-(3-氧代-3-(苯胺)丙基)吗啉代)甲基)-2-(噻唑-2-基)-1,4-二氢嘧啶-5-甲酸乙酯]	6.17	–
